# Data reported in ChEMBL document CHEMBL1201862, “PubChem BioAssay data set” (2004).
# The source made the active and inactive calls.
# Experiments:
# [1] = biological target: Prothrombin (Homo sapiens, UniProt P00734); assay: Thrombin 1536 HTS Dose Response Confirmation. [Related pubchem assays: 1046 (Thrombin 1536 HTS; hits were confirmed in this assay)]; assay type: functional
# [2] = biological target: Induced myeloid leukemia cell differentiation protein Mcl-1 (Homo sapiens, UniProt Q07820); assay type: functional
# [3] = biological target: T1, SUMO-activating enzyme (Homo sapiens, UniProt Q9UBT2); assay: inhibitors of in vitro SUMOylation cascade, primary screen, biochemical, HTRF, uHTS (AID 2006); assay type: protein-complex assay
# [4] = biological target: T1, SUMO-activating enzyme; assay: SUMOylation inhibitor hit validation, confirmation, SUMOylation inhibitor project, biochemical, AlphaScreen (AID 2018); assay type: functional
# [5] = cytotoxicity in HEK-293T cells, dose response, cytotoxicity control for TCR NF-kB inhibitor project, luminescence, T-cell screen hits (AID 489026); assay type: functional, cell-based;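 note: cells exposed to compound about 14 hours before the viability readout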
# [6] = inhibitors of intracellular T. cruzi replication, confirmation, NIH3T3 host cells, beta-gal luminescence (AID 2044); assay type: functional, cell-based;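 note: intracellular parasites grown in NIH/3T3 mouse fibroblasts as host cells; luminescent beta-galactosidase reporter signal from transgenic T. cruzi replicating inside host cells; inhibitors lower the luminescence signal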
# [7] = biological target: T2, Microphthalmia-associated transcription factor (Homo sapiens, UniProt O75030); assay: TRPM1 promoter luciferase signal decrease, dose response, MITF inhibitor project, cell-based, SK-MEL-5, cherry-picked, set 3 (AID 493073); assay type: functional
# T2 sequence (O75030 whole entry): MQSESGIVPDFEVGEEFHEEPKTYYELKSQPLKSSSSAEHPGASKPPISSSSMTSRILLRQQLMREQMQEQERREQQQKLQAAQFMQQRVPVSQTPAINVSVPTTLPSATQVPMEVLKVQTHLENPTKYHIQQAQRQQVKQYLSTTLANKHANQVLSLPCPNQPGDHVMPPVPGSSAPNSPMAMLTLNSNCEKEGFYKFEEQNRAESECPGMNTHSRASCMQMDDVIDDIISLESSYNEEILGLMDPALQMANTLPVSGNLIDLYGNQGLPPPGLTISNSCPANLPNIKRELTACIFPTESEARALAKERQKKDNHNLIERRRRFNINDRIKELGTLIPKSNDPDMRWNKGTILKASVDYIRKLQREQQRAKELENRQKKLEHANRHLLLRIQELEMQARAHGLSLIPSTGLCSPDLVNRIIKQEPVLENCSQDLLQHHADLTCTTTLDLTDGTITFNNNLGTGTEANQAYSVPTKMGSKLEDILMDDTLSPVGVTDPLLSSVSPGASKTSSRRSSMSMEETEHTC
# [8] = cytotoxicity toward NIH3T3 fibroblasts, dose response, counter-screen, cell-based, ATP luminescence, mouse fibroblasts (AID 2010); assay type: functional;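 note: cells exposed to compound for about 90 hours before reading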
# [9] = Luminescence Cell-Based Dose Retest to Confirm Inhibitors of Cancer Stem Cells. [Related pubchem assays (depositor defined):AID2717, AID2721]; assay type: functional; settings: Homo sapiens
# [10] = biological target: Beta-galactosidase (Escherichia coli, UniProt Q8VNN2); assay: beta-galactosidase enzyme inhibitors and activators, dose response, artefact control for CCR6 antagonist project, biochemical, E. coli enzyme, set 3 (AID 504712); assay type: functional
# [11] = test system: Vero; assay: host cell cytotoxicity of antiviral hits, dose response, cytotoxicity control for West Nile virus antiviral project, secondary assay (AID 1650); assay type: functional; settings: Chlorocebus sabaeus
# [12] = biological target: DNA dC->dU-editing enzyme APOBEC-3A (Homo sapiens, UniProt P31941); assay: Dose Response confirmation of small molecule APOBEC3A DNA Deaminase Inhibitors via a fluorescence-based single-stranded DNA deaminase assay. [Related pubchem assays (depositor defined):AID493011, AID493024]; assay type: functional
# [13] = biological target: DNA dC->dU-editing enzyme APOBEC-3G (Homo sapiens, UniProt Q9HC16); assay type: functional;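 note: Dose-response counterscreen measuring inhibition of APOBEC3G DNA deaminase activity, run while confirming APOBEC3A inhibitors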
# [14] = ZM109 Env clade C HIV-1 fusion inhibitors, dose response, HeLa effector, CEM target cells, luciferase, cherry-pick (AID 652058); assay type: functional, cell-based
# [15] = inhibitors of clade B AD8 Env fusion, dose response, cell-based, cherry-pick (AID 652062); assay type: functional;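 note: luciferase signal from cell-cell fusion driven by HIV-1 clade B AD8 Env; potency is for inhibitors of fusion seen as a drop in luminescence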
# [16] = inhibitors of HIV Env-driven cell fusion, dose response, cherry-pick (AID 652057); assay type: functional, cell-based
# [17] = biological target: T3, Cytochrome P450 1A2 (Homo sapiens, UniProt P05177);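 note: PubChem cytochrome P450 panel assay, CYP1A2 panel member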
# T3 sequence (P05177 whole entry): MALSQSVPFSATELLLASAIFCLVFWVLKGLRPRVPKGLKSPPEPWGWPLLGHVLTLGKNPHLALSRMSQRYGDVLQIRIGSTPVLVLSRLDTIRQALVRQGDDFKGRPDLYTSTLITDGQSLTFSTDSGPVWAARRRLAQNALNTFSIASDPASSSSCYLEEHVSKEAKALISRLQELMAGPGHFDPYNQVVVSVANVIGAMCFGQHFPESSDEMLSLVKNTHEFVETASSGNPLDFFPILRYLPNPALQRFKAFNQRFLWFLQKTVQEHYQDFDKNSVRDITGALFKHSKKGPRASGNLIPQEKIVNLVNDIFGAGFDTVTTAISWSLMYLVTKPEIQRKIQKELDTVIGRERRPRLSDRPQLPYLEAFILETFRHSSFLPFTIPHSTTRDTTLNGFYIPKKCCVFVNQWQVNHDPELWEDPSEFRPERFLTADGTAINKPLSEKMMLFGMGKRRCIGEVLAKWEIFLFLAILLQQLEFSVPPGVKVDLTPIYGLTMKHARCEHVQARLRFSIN
# [18] = off-target signal loss in HeLa-CEM21 co-culture – HeLa F-luc CTL cells, cherry-picked, counter-screen for HIV-1 Env fusion inhibitor project, dose response (AID 652040); assay type: functional, cell-based;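 note: potency for signal decrease marking cytotoxic or nonspecific inhibition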
# [19] = P. falciparum late gametocyte killing, dose response, luminescence (AID 1117278); assay type: functional, cell-based;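 note: gametocytes exposed to compound for 24 hours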
# [20] = Jurkat T cell cytotoxicity, dose response, cytotoxicity control for P. falciparum gametocyte viability project, luminescence (AID 1117277); assay type: functional, cell-based;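 note: potency reflects loss of cellular ATP meaning fewer viable cells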
# [21] = biological target: Nonstructural protein 1 (Influenza A virus, UniProt Q194T2); assay type: functional, Influenza A virus (A/California/07/2009(H1N1))
# [22] = biological target: Cytochrome P450 2D6 (Homo sapiens, UniProt P10635);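 note: CYP2D6 member of a cytochrome P450 panel assay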
# [23] = biological target: T4, Carboxy-terminal domain RNA polymerase II polypeptide A small phosphatase 1 (Homo sapiens, UniProt Q9GZU7); assay: inhibitors of CTDSP1, concentration-response testing, biochemical assay, absorbance-based, actives from ultra-high-throughput screening (AID 540297); assay type: functional
# T4 sequence (Q9GZU7 whole entry): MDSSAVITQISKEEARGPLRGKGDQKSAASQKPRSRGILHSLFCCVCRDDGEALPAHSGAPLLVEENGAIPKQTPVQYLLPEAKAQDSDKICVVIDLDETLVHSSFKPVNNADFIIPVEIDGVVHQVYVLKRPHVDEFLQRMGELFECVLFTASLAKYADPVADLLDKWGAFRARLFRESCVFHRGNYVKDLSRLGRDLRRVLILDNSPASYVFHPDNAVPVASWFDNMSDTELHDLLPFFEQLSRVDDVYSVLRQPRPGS
# [24] = biological target: T5, Mannose-6-phosphate isomerase (Homo sapiens, UniProt P34949); assay: human PMI inhibitors, high substrate, primary screen, biochemical, fluorescence intensity, high mannose 6-phosphate (AID 1220)
# T5 sequence (P34949 whole entry): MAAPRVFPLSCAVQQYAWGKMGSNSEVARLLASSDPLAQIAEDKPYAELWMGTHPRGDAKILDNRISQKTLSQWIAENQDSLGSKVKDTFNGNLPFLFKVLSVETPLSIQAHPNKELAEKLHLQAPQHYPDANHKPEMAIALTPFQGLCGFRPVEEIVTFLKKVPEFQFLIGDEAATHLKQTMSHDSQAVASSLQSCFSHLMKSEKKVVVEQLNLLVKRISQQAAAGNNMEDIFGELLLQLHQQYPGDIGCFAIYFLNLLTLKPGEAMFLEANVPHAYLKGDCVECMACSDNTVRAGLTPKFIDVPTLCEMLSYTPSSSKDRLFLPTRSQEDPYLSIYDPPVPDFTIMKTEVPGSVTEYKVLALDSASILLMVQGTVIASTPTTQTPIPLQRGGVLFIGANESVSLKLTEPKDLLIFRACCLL
# [25] = test system: H4; assay: Luminescence Cell-Based Dose Response HTS to Identify Activators of 5'UTR Stem-Loop Driven Prion Protein mRNA Translation in H4 Neuroglioblastoma Cells. [Related pubchem assays: 1829 (Project Summary), 1814 (Primary HTS)]; assay type: functional; settings: Homo sapiens
# [26] = test system: Vero; assay: cells; assay type: functional; settings: Chlorocebus sabaeus
# [27] = Luminescence Cell-Based Dose Confirmation HTS to Identify Activators of 5'UTR Stem-Loop Driven Alpha-Synuclein mRNA Translation in H4 Neuroglioblastoma Cells. [Related pubchem assays: 1829 (Project Summary), 1814 (Primary HTS)]; assay type: functional
# [28] = Luminescence Cell-Based Dose Response HTS to Identify Activators of Luciferase Translation or Activity in H4 […] Cells. [Related pubchem assays: 1829 (Project Summary), 1814 (Primary HTS)]; assay type: functional
# DNA dC->dU-editing enzyme APOBEC-3G, sequence (Q9HC16 whole entry, the tested form may be a part): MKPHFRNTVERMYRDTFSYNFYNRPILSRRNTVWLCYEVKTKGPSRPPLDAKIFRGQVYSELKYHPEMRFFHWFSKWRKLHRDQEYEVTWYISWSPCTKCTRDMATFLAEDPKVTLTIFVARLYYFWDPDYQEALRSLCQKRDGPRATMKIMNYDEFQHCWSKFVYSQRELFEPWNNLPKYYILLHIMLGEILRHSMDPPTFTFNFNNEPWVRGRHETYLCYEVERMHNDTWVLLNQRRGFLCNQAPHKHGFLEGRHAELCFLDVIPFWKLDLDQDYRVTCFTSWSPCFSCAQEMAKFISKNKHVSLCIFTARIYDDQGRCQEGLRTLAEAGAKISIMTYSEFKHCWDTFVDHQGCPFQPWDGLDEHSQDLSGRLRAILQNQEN
# Beta-galactosidase, sequence (Q8VNN2 whole entry): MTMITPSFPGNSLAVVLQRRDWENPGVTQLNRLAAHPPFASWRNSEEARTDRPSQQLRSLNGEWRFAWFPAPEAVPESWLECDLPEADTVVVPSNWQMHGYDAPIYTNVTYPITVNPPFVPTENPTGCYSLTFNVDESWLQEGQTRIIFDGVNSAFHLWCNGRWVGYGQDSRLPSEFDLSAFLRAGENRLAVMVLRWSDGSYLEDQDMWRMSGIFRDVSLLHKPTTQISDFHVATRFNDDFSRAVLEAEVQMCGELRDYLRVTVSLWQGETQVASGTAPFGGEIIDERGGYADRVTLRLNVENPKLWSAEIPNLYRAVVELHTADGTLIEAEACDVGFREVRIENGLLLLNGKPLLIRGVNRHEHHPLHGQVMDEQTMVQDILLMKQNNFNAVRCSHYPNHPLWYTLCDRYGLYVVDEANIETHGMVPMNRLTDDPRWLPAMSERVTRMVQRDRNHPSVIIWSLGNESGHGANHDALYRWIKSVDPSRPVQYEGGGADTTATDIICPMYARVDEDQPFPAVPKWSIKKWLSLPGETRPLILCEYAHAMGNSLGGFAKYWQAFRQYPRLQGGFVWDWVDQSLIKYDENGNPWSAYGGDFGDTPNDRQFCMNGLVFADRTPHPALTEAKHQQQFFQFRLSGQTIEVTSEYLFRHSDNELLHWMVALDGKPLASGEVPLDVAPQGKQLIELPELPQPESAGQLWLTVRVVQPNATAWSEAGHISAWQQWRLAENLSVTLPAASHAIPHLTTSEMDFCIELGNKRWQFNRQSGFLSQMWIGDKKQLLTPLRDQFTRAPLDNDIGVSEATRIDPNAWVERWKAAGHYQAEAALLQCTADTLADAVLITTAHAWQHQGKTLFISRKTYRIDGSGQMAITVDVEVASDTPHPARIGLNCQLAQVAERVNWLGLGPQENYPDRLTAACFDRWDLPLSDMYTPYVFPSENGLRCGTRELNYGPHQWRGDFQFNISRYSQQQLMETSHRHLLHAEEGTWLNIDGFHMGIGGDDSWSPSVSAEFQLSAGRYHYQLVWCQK
# DNA dC->dU-editing enzyme APOBEC-3A, sequence (P31941 whole entry): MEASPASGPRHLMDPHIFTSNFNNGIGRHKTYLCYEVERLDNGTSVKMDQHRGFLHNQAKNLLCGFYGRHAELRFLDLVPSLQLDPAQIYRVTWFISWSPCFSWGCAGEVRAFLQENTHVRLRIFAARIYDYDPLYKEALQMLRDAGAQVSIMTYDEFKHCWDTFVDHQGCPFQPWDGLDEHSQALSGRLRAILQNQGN
# T1 sequence (Q9UBE0 whole entry): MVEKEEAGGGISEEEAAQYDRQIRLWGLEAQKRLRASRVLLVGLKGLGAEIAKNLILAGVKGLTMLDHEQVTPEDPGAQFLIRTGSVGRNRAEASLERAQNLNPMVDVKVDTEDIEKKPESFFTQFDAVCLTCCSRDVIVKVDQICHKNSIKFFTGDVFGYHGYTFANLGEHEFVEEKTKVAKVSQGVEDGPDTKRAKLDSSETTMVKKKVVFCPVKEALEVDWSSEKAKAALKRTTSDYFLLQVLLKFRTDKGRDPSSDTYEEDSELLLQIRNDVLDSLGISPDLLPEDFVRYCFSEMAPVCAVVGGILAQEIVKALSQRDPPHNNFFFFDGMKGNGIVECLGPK
# T1 sequence (Q9UBT2 whole entry): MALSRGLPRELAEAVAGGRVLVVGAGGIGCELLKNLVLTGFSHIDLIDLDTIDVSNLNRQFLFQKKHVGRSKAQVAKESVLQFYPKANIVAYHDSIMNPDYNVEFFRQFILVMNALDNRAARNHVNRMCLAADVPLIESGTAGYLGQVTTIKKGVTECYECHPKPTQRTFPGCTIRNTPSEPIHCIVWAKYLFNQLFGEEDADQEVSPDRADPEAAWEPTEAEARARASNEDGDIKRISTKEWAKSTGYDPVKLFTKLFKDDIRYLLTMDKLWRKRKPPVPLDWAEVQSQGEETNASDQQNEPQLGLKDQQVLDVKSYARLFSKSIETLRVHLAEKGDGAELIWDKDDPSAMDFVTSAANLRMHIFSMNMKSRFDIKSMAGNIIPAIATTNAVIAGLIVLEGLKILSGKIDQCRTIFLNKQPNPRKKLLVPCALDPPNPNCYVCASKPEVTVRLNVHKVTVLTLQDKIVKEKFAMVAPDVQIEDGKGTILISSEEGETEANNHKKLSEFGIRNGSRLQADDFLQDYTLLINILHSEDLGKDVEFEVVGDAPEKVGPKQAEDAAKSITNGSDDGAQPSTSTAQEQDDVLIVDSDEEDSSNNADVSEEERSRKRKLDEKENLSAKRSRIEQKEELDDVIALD
# Nonstructural protein 1, sequence (Q194T2 whole entry): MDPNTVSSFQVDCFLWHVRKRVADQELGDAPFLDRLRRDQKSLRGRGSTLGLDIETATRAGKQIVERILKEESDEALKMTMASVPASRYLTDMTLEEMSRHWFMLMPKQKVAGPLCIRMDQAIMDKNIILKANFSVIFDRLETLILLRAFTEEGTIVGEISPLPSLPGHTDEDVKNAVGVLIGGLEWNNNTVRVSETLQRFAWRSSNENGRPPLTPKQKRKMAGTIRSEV
# Cytochrome P450 2D6, sequence (P10635 whole entry, the tested form may be a part): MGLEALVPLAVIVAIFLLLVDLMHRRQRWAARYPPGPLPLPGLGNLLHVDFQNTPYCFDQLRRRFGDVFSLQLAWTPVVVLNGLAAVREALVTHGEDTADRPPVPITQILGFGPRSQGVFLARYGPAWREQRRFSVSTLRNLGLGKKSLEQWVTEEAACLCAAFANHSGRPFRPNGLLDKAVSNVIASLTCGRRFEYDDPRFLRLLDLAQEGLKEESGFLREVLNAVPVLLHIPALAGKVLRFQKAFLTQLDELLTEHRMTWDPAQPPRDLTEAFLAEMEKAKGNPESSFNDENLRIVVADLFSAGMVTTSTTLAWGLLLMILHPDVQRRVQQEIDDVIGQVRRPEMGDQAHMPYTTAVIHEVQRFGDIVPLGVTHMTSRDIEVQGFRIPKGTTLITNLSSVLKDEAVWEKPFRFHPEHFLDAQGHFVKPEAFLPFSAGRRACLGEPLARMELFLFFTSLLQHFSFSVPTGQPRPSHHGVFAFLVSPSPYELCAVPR
# Induced myeloid leukemia cell differentiation protein Mcl-1, sequence (Q07820 whole entry): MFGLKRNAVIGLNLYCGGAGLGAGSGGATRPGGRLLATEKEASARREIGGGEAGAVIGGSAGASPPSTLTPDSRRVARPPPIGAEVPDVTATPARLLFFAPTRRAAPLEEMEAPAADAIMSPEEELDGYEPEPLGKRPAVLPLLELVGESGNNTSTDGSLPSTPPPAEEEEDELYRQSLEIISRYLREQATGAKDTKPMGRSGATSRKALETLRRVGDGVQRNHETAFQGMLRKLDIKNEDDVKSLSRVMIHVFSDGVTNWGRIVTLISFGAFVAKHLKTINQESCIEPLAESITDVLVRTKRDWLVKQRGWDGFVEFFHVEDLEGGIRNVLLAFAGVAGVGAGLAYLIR
compound,measurement,setting,value
CC(O)C(=O)N/N=C/c1cccc2ccccc12 (centres undefined),IC50,[1],48.8 µM (active)
N#Cc1c2nc3ccccc3nc2n2cc(NC(=O)c3ccc(F)cc3)ccc12,IC50,[2],1.57 µM (active)
same,IC50,[3],2.96 µM (active)
same,IC50,[4],1.8 µM (active)
CN(Cc1ccccc1)C1=CC(=[N+]2CCCC2)CC(C)(C)C1,IC50,[5],> 80 µM (inactive)
same,EC50,[6],0.171 µM (active)
same,AC50,[7],1.55 µM (active)
same,EC50,[8],> 60 µM (not active)
C=C(C)COc1ccc(-c2[nH]nc(C)c2-c2ccc(OC)c(OC)c2)c(O)c1,IC50,[5],44.6 µM (inactive)
same,AC50,[9],1.36 µM (active)
O=C(NC(=S)N(CCc1ccccc1)CCc1ccccc1)c1ccco1,IC50,[10],> 66.6 µM (inactive)
CC1=C(C(=O)Nc2ccccc2)C(c2ccc(C)cc2)NC(Nc2nc3ccccc3o2)=N1 (centres undefined),IC50,[3],4.07 µM (active)
same,EC50,[6],0.982 µM (active)
same,CC50,[11],> 100 µM (active)
same,EC50,[8],22.3 µM (active)
same,IC50,[4],20.2 µM (active)
Nc1nc(-c2cccnc2)nn1C(=O)Cc1ccccc1,IC50,[1],0.0753 µM (active)
O=C(c1ccco1)n1nc(-c2ccco2)nc1SCc1ccccc1,IC50,[1],0.201 µM (active)
Cn1nnnc1SCC(=O)Nc1ccc(Br)cc1Cl,IC50,[12],5.35 µM (active)
same,IC50,[13],9.75 µM (active)
O=C(Nc1ccc(S(=O)(=O)N2CCCCC2)cc1)c1ccc(CN2CCOCC2)cc1,IC50,[5],27.2 µM (inactive)
CCCCn1c(N)c(C(=S)NC(=O)CC(C)C)c(=O)n(C)c1=O,IC50,[10],> 66.6 µM (inactive)
O=C1NCC(COCc2ccco2)O1 (centres undefined),IC50,[1],> 50 µM (not active)
O=C(Nc1ccc(C(F)(F)F)cc1)c1cccn(Cc2ccc3c(c2)OC(F)(F)O3)c1=O,AC50,[14],0.59 µM (active)
same,IC50,[5],> 80 µM (inactive)
same,AC50,[15],6 µM (active)
same,AC50,[16],22.5 µM (active)
same,AC50,[9],3.68 µM (active)
same,AC50,[17],25.1 µM (inconclusive)
same,AC50,[18],50.7 µM (active)
CCCCN(C(=O)c1cnccn1)c1c(N)n(CCC)c(=O)[nH]c1=O,IC50,[12],13.7 µM (active)
same,IC50,[13],15.5 µM (active)
CC(=NNc1ccc2ccccc2n1)c1ccccc1O,IC50,[10],> 66.6 µM (inactive)
NCCCN1CCOCC1,IC50,[19],> 109 µM (inactive)
same,IC50,[20],> 83.4 µM (inactive)
CCN(CC)c1ccc(NC(=O)CN2CCN(CC(=O)Nc3ccccc3OC)CC2)cc1,IC50,[21],79.6 µM (active)
C[N+]1(CC(=O)OCCCc2ccccc2)CCOCC1,IC50,[12],1.27 µM (active)
same,AC50,[22],12.6 µM (inconclusive)
same,IC50,[13],1.93 µM (active)
same,IC50,[23],6.39 µM (active)
CN(C)c1ccc(C(=S)N2CCOCC2)cc1Br,IC50,[24],> 50 µM (not active)
CC1=NN(c2ccccc2)C(=O)/C1=C\C=C\c1ccccc1,EC50,[25],> 120 µM (not active)
same,CC50,[26],12.1 µM (active)
same,CC50,[11],26.8 µM (active)
same,AC50,[9],4.82 µM (active)
same,EC50,[27],> 120 µM (not active)
same,EC50,[28],27.3 µM (active)
COc1ccc(-n2nc([N+](=O)[O-])c(NCCC3=CCCCC3)[n+]2[O-])cc1,EC50,[6],0.534 µM (active)
same,EC50,[8],> 60 µM (not active)
same,IC50,[21],41.3 µM (active)
CC(C)C1Oc2ccccc2N(CC(=O)N(Cc2ccccn2)C2CC2)C1=O (centres undefined),IC50,[19],> 109 µM (inactive)
same,IC50,[20],> 83.3 µM (inactive)
CS(=O)(=O)N(CC(=O)N1CCC(C(N)=O)CC1)C1CCCCC1,IC50,[19],> 109 µM (inactive)
same,IC50,[20],> 83.3 µM (inactive)
